{"source": "PubChem BioAssay (NCI)", "test_in_all_cases": "inhibition of tumour cell growth, NCI panel, 48 h", "key": {"[1]": {"system": "OVCAR-4 ovarian"}, "[2]": {"system": "TK-10 renal"}, "[3]": {"system": "HCC-2998 colon"}, "[4]": {"system": "CAKI-1 renal"}, "[5]": {"system": "SN12C renal"}, "[6]": {"system": "EKVX NSCLC"}, "[7]": {"system": "HOP-92 NSCLC"}, "[8]": {"system": "SR leukemia"}, "[9]": {"system": "U251 CNS"}, "[10]": {"system": "MDA-MB-435"}, "[11]": {"system": "RXF 393 renal"}}, "note": "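Compound exposure: 48 hours, 5 concentrations, 96-well plates. GI50: concentration for 50% inhibition of growth. TGI is the concentration that stops growth completely.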"}
{"molecule": "O=C1CC2CC3OC3[C@H]3c4cc5c(cc4C(=O)N1C23)OCO5", "note": "(some centres undefined)", "values": [{"measurement": "TGI", "setting": "[1]", "result": "> 100", "unit": "µM"}, {"measurement": "TGI", "setting": "[2]", "result": "> 100", "unit": "µM"}, {"measurement": "TGI", "setting": "[3]", "result": "> 100", "unit": "µM"}, {"measurement": "TGI", "setting": "[4]", "result": "> 100", "unit": "µM"}, {"measurement": "TGI", "setting": "[5]", "result": "> 100", "unit": "µM"}, {"measurement": "TGI", "setting": "[6]", "result": "> 100", "unit": "µM"}, {"measurement": "TGI", "setting": "[7]", "result": "> 100", "unit": "µM"}, {"measurement": "TGI", "setting": "[8]", "result": "> 100", "unit": "µM"}]}
{"molecule": "CC(=O)Nc1ccc(C(=O)NN2C(=O)C(Cl)/C2=C/c2ccco2)cc1", "note": "(centres undefined)", "values": [{"measurement": "TGI", "setting": "[2]", "result": "> 100", "unit": "µM"}, {"measurement": "TGI", "setting": "[3]", "result": "> 100", "unit": "µM"}, {"measurement": "TGI", "setting": "[9]", "result": "> 100", "unit": "µM"}, {"measurement": "TGI", "setting": "[7]", "result": "> 100", "unit": "µM"}, {"measurement": "TGI", "setting": "[8]", "result": "> 100", "unit": "µM"}]}
{"molecule": "COc1cc(C(C)O)c(S(=O)(=O)CC(C)O)nn1", "note": "(centres undefined)", "values": [{"measurement": "TGI", "setting": "[10]", "result": "> 100", "unit": "µM"}, {"measurement": "TGI", "setting": "[1]", "result": "> 100", "unit": "µM"}, {"measurement": "TGI", "setting": "[2]", "result": "> 100", "unit": "µM"}, {"measurement": "TGI", "setting": "[3]", "result": "> 100", "unit": "µM"}, {"measurement": "TGI", "setting": "[4]", "result": "> 100", "unit": "µM"}, {"measurement": "TGI", "setting": "[5]", "result": "> 100", "unit": "µM"}, {"measurement": "TGI", "setting": "[6]", "result": "> 100", "unit": "µM"}, {"measurement": "TGI", "setting": "[11]", "result": "> 100", "unit": "µM"}, {"measurement": "TGI", "setting": "[7]", "result": "> 100", "unit": "µM"}, {"measurement": "TGI", "setting": "[8]", "result": "> 100", "unit": "µM"}]}
{"molecule": "Nc1[nH]nc(Nc2ccc(Cl)cc2)c1P(=O)(c1ccccc1)c1ccccc1", "values": [{"measurement": "TGI", "setting": "[10]", "result": 42.8, "unit": "µM"}, {"measurement": "TGI", "setting": "[1]", "result": 80.8, "unit": "µM"}, {"measurement": "TGI", "setting": "[2]", "result": "> 100", "unit": "µM"}, {"measurement": "TGI", "setting": "[3]", "result": 60.2, "unit": "µM"}, {"measurement": "TGI", "setting": "[4]", "result": "> 100", "unit": "µM"}, {"measurement": "TGI", "setting": "[6]", "result": "> 100", "unit": "µM"}, {"measurement": "TGI", "setting": "[11]", "result": 53.9, "unit": "µM"}, {"measurement": "TGI", "setting": "[9]", "result": "> 100", "unit": "µM"}, {"measurement": "TGI", "setting": "[7]", "result": 70.8, "unit": "µM"}, {"measurement": "TGI", "setting": "[8]", "result": "> 100", "unit": "µM"}]}
{"molecule": "CC(=O)c1c(C)nc(SSc2nc(C)c(C(C)=O)c(-c3ccc(Cl)cc3)c2C#N)c(C#N)c1-c1ccc(Cl)cc1", "values": [{"measurement": "GI50", "setting": "[10]", "result": "> 150", "unit": "µg/mL"}, {"measurement": "TGI", "setting": "[10]", "result": "> 150", "unit": "µg/mL"}, {"measurement": "GI50", "setting": "[1]", "result": 62.6, "unit": "µg/mL"}, {"measurement": "TGI", "setting": "[1]", "result": "> 150", "unit": "µg/mL"}, {"measurement": "GI50", "setting": "[2]", "result": 102, "unit": "µg/mL"}, {"measurement": "TGI", "setting": "[2]", "result": "> 150", "unit": "µg/mL"}, {"measurement": "GI50", "setting": "[4]", "result": 62.7, "unit": "µg/mL"}, {"measurement": "TGI", "setting": "[4]", "result": "> 150", "unit": "µg/mL"}, {"measurement": "GI50", "setting": "[5]", "result": 15, "unit": "µg/mL"}, {"measurement": "TGI", "setting": "[5]", "result": 15, "unit": "µg/mL"}, {"measurement": "GI50", "setting": "[6]", "result": 145, "unit": "µg/mL"}, {"measurement": "TGI", "setting": "[6]", "result": "> 150", "unit": "µg/mL"}, {"measurement": "GI50", "setting": "[11]", "result": 22.5, "unit": "µg/mL"}, {"measurement": "TGI", "setting": "[11]", "result": 78.4, "unit": "µg/mL"}, {"measurement": "GI50", "setting": "[9]", "result": 53.6, "unit": "µg/mL"}, {"measurement": "TGI", "setting": "[9]", "result": "> 150", "unit": "µg/mL"}, {"measurement": "GI50", "setting": "[8]", "result": "> 150", "unit": "µg/mL"}, {"measurement": "TGI", "setting": "[8]", "result": "> 150", "unit": "µg/mL"}]}
{"molecule": "CC(=O)OCC1OC(n2cc(F)c(=O)[nH]c2=O)C(NC(=O)OCc2ccccc2)C(OC(C)=O)C1OC(C)=O", "note": "(centres undefined)", "values": [{"measurement": "TGI", "setting": "[1]", "result": "> 100", "unit": "µM"}, {"measurement": "TGI", "setting": "[3]", "result": "> 100", "unit": "µM"}, {"measurement": "TGI", "setting": "[4]", "result": "> 100", "unit": "µM"}, {"measurement": "TGI", "setting": "[5]", "result": "> 100", "unit": "µM"}, {"measurement": "TGI", "setting": "[6]", "result": "> 100", "unit": "µM"}, {"measurement": "TGI", "setting": "[11]", "result": "> 100", "unit": "µM"}, {"measurement": "TGI", "setting": "[9]", "result": "> 100", "unit": "µM"}, {"measurement": "TGI", "setting": "[7]", "result": "> 100", "unit": "µM"}]}
